Test results: US6083959A, “Quinoline derivatives, processes for their preparation and their use as medicaments” (Fujisawa Pharmaceutical Co., Ltd., priority 1996, dated 2000)
Counter-ions that a name gives are not always drawn.

Target: T1, Bradykinin Receptor (Cavia porcellus, UniProt O70526)
T1 construct: The ileum was removed and homogenized in buffer; from tissue; host or cells: guinea pig (male Hartley strain) ileum, crude membrane
T1 sequence (O70526 1-372): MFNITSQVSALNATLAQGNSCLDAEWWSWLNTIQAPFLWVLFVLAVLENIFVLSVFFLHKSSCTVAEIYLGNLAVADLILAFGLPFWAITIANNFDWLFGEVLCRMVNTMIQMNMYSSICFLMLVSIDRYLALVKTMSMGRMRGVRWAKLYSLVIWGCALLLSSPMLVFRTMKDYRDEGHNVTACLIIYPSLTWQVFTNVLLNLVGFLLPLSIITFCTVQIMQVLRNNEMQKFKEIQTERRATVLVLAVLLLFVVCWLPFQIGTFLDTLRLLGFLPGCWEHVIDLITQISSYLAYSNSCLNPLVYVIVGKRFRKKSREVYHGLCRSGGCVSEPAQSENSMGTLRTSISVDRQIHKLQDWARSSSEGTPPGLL
Assay: ^3 H-Bradykinin Receptor Binding (crude guinea pig ileum membrane)
Details: ^3 H-Bradykinin 0.06 nM, room temperature, 60 minutes, read-out: Inhibition of ^3 H-Bradykinin binding IC50
Experimental: ^3 H-Bradykinin Receptor Binding
(a) Crude Ileum Membrane Preparation
Male Hartly strain guinea pigs were sacrificed by decapitation. The ileum was removed and homogenized in buffer (50 mM 2-[[tris(hydroxymethyl)methyl]amino]-1-ethanesulfonic acid (TES), 1 mM 1,10-phenanthroline pH 6.8). The homogenate was centrifuged (1000×g,20 minutes) to remove tissue clumps and the supernatant was centrifuges (100,000×g, 60 minutes) to yield a pellet. The pellet was resuspended in buffer (50 mM TES, 1 mM 1,10-phenanthroline, 140 mg/l bacitracin, 1 mM dithiothreiol, 0.1% bovine serum albumin pH 6.8) and homogenized with a glass-teflon homogenizer to yield suspension which was referred to as crude membrane suspension. The obtained membrane suspension was stored at -80° C. until use.
(b) ^3 H-Bradykinin Binding to the Membrane
The frozen crude membrane suspension was thawed. In binding assays, ^3 H-Bradykinin (0.06 nM) and drug were incubated with 50 μl of the membrane suspension at room temperature for 60 minutes in a final volume of 250 μl. Separation of receptor-bound from free ^3 H-Bradykinin is achieved by immediate filtration under vacuum and washed three times with 5 ml of ice-cold buffer (50 mM Tris-HCl pH 7.5). Non-specific binding was defined as binding in the presence of 0.1 μM Bradykinin. The radioactivity retained on rinsed filters was determined by a liquid-scintillation counter.

IC50 [nM]	Structure (SMILES)
4.5	Cc1cc(-n2ccnc2)c2cccc(OCc3c(Cl)ccc(N(C)C(=O)CNC(=O)C=Cc4ccc(C(=O)NCc5ccccn5)cc4)c3Cl)c2n1 [2-(3) (trihydrochloride), 8-[2,6-Dichloro-3-[N-methyl-N-[4-[N-(2-pyridylmethyl)carbamoyl]cinnamoylglycyl]amino]benzyloxy]-4-(imidazol-1-yl)-2-methylquinoline]
6.6	Cc1cc(-n2ccnc2)c2cccc(OCc3c(Cl)ccc(N(C)C(=O)CNC(=O)Nc4cccc(C(=O)Nc5ccncc5)c4)c3Cl)c2n1 [3 (trihydrochloride), 8-[2,6-dichloro-3-[N-methyl-N-[N'-[3-[N-(4-pyridyl)carbamoyl]phenyl]ureidoacetyl]amino]benzyloxy]-4-(imidazol-1-yl)-2-methylquinoline]
3.3	Cc1cc(-n2cccn2)c2cccc(OCc3c(Cl)ccc(N(C)C(=O)CNC(=O)C=Cc4ccc(C(=O)N(C)C)cc4)c3Cl)c2n1 [11-(4) (dihydrochloride), 8-[2,6-Dichloro-3-[N-methyl-N-[4-(dimethylcarbamoyl)cinnamoylglycyl]amino]benzyloxy]-2-methyl-4-(pyrazol-1-yl)quinoline]
9.1	Cc1cc(-n2cncn2)c2cccc(OCc3c(Cl)ccc(N(C)C(=O)CNC(=O)C=Cc4ccc(C(=O)N(C)C)cc4)c3Cl)c2n1 [12 (dihydrochloride), 8-[2,6-Dichloro-3-[N-methyl-N-[4-(dimethylcarbamoyl)cinnamoylglycyl]amino]benzyloxy]-2-methyl-4-(1,2,4-triazol-1-yl)quinoline]
3.9	CCOC(=O)c1ccc(C=CC(=O)NCC(=O)N(C)c2ccc(Cl)c(COc3cccc4c(-n5ccnc5)cc(C)nc34)c2Cl)cc1 [17-(1), 8-[2,6-Dichloro-3-[N-(4-ethoxycarbonylcinnamoylglycyl)-N-methylamino]benzyloxy]-4-(imidazol-1-yl)-2-methylquinoline]
